Key:
[1] = xn = mol fraction of the nth substance listed; details: for mass density: Other PVT measurement; for Critical density: closed cell phase equilibration
[2] = Liquid

C=Cc1ccccc1 [styrene] + O=C=O
mass density [kg/m3], [1]
Details | x1 = 0.0225 | x1 = 0.0363 | x1 = 0.0488 | x1 = 0.0742 | x1 = 0.101
303.2 K, Liquid | 721 | 755 | 774 | 805 | 831
308.2 K, Liquid | 675 | 721 | 747 | 781 | 813
313.2 K, Liquid | 615 | 683 | 711 | 758 | 794
318.2 K, Liquid | 529 | 635 | 682 | 734 | 774
321.2 K, Gas | 500 | – | – | – | –
323.2 K, Liquid | – | 582 | 645 | 711 | 755
328.2 K, Liquid | – | – | 608 | 685 | 733
330.2 K, Gas | – | 527 | – | – | –
333.2 K, Gas | – | – | 570 | – | –
333.2 K, Liquid | – | – | – | 663 | 713

[1], Liquid
Details | Critical density [kg/m3]
x1 = 0.0211 | 504
x1 = 0.0384 | 546
x1 = 0.0512 | 560
x1 = 0.0637 | 590

O=C=O [carbon dioxide]
[2]
Details | Critical pressure [kPa] | Critical temperature [K]
Direct measurement | 7360 | –
Visual observation in a stirred cell | – | 304.2

CCc1ccccc1 [ethylbenzene] + O=C=O
mass density [kg/m3], [1], Liquid
Details | 303.2 K | 308.2 K | 313.2 K | 318.2 K | 323.2 K | 328.2 K | 333.2 K
x1 = 0.0211 | 709 | 665 | 590 | – | – | – | –
x1 = 0.0384 | 741 | 715 | 673 | 633 | 583 | – | –
x1 = 0.0512 | 762 | 735 | 702 | 671 | 630 | 603 | –
x1 = 0.0637 | 782 | 761 | 731 | 703 | 675 | 642 | 607
x1 = 0.0751 | 790 | 769 | 748 | 722 | 697 | 672 | 646
x1 = 0.0998 | 818 | 799 | 779 | 760 | 742 | 723 | 706

[1], Liquid
Details | Critical density [kg/m3]
x1 = 0.0225 | 520
x1 = 0.0363 | 545
x1 = 0.0488 | 580

From the NIST ThermoML archive (doi:10.1021/je049546h)
